Reference: PMC9911168, “Cytotoxic and pro-apoptotic effects of botanical drugs derived from the indigenous cultivated medicinal plant Paris polyphylla var. yunnanensis” (Frontiers in Pharmacology, 2023)

Columns and labels:
Assay type in all cases: cell-based, human
LO2 = assay: MTS cell viability assay, normal liver cell LO2; conditions: Homo sapiens, L02, read-out: IC50 (±SD) LO2
Protocol: (§1) Three human liver cancer cell lines (SMMC-7721, HepG2, and SK-HEP-1) and the non-small-cell lung cancer (NSCLC) cell line A549 were obtained from ATCC (Manassas, VA, United States). Normal human cell lines (liver cell line LO2 and lung cell line BEAS-2B) were obtained from ATCC (Manassas, VA, United States). Cells were cultured in RMPI-1640 or DMEM medium (Biological Industries, Kibbutz Beit-Haemek, Israel) supplemented with 10% (v/v) fetal bovine serum (Biological Industries) at 37°C in a humidified atmosphere with 5% (v/v) CO2.
(§2) The effects of the extracts and isolated saponins on cell growth were evaluated by the MTS assay (3-(4,5-dimethylthiazol-2-yl)-5(3-carboxymethoxyphenyl)-2-(4-sulfopheny)-2H-tetrazolium; Promega, Madison, WI, United States) on human tumor cell lines ([Mosmann, 1983]; [Cory et al., 1991]; [Malich et al., 1997]). In a test experiment of cell inhibition, the cell inhibition effects of six crude extracts (100 μg/mL) and six isolated saponins (40 μM) were roughly measured to ascertain whether to measure the IC50 value by MTS assay.
(§3) Each well of a 96-well plate (Multiskan Fc, Therm) was seeded with 100 μL cells at a density of 3,000–5,000 cells per well, with the cell suspension containing 10% (v/v) fetal bovine serum (DMEM or RMPI1640, Biological Industries, Kibbutz Beit-Haemek, Israel). After 12–24 h of inoculation and culture at 37°C, the extracts or saponins were added at the indicated concentrations after being dissolved in dimethyl sulfoxide (DMSO, Biological Industries, Kibbutz Beit-Haemek, Israel) in a final volume of 200 μL per well, each in triplicate. The six crude extracts were added at concentrations of 100, 20, 4, 0.8, and 0.16 μg/mL; the six isolated saponins were added at concentrations of 10, 5, 2.5, 1.25, 0.625, and 0.3125 μM. After culture for 48 h at 37°C, 20 μL of MTS solution and 100 μL of DMEM were added to each well; three blank wells were set aside with 20 μL MTS solution and 100 μL DMEM. After an incubation for another 2–4 h, the absorbance at 492 nm was measured. Cisplatin and Paclitaxel (MeilunBio) were used as a positive control in each experiment. The cell growth curve was drawn with the concentration as the abscissa and the cell survival rate as the ordinate. The IC50 value of each saponin was calculated by the two-point method ([Reed and Muench, 1938]).

HepG2 cells [1] = assay: Cell cycle analysis (PI staining, flow cytometry), HepG2; conditions: HepG2, 24 h, 1 μM
Protocol: (§4) Cell cycle distribution was determined by propidium iodide (PI, BD, Pharmingen) staining ([Kong et al., 2016]; [Wei et al., 2021]). Briefly, three cancer cell lines were cultured in six-well plates at a density of 3 × 10^5 cells per well for 24 h before treatment with each of the six isolated saponins at the indicated concentrations for 24 h. The cells were collected, centrifuged, and washed twice with ice-cold PBS. Cells were fixed in 70% (v/v) ice-cold ethanol at 4°C overnight and washed again in PBS twice. The cells were incubated with 100 μL RNase A at 37°C for 30 min in the dark, after which 400 μL PI was added to the cells with RNase A in the dark at 4°C for 15 min. The cell cycle stage was analyzed by flow cytometry (BD, FACSCelesta, United States) with FLOWJO software (FlowJo, Ashland, OR, United States).

SMMC-7721 cells [2] = assay: Apoptosis by annexin V-FITC/PI staining, SMMC-7721; conditions: SMMC-7721, saponins 5 μM, Figure 7
Protocol: Double staining with annexin V-fluorescein isothiocyanate (FITC) and PI was used to determine the effects of the six saponins on cell apoptosis by flow cytometry ([Homburg et al., 1995]; [Vermes et al., 1995]; [Casciola-Rosen et al., 1996]). The effects of the six isolated saponins on apoptosis were determined using an annexin V-FITC apoptosis kit (BD, Pharmingen); the chemotherapy drug doxorubicin (DOX, Beyotime Institute of Biotechnology, Shanghai, China) was used as the positive control. Cells were cultured in six-well plates at a density of 3 × 10^5 cells per well for 24 h before being treated with each of the six isolated saponins at the indicated concentrations for 24 h. The cells were collected, centrifuged, and washed twice with ice-cold phosphate-buffered saline (PBS). The cells were stained with annexin V-FITC and PI for 15 min in the dark at room temperature before analysis by flow cytometry (BD, FACSCelesta, America). Annexin V-FITC^+ and PI^+ (Q2) were considered late-stage apoptotic cells, while annexin V-FITC^+ and PI^− (Q3) cells were considered early-stage apoptotic cells. Annexin V-FITC^– and PI^+ (Q1) were necrotic or mechanically damaged cells, and annexin V-FITC^– and PI^− (Q4) cells were healthy living cells.

SMMC-7721 cells [3] = assay: Cell cycle analysis (PI staining, flow cytometry), SMMC-7721; conditions: SMMC-7721, 24 h, 1 μM
Protocol: as §4

HepG2 = assay: MTS cell viability assay, HepG2; conditions: Homo sapiens, HepG2, 48 h, read-out: IC50 (±SD) HepG2
Protocol: as §2, §3

BEAS-2B = assay: MTS cell viability assay, normal lung cell BEAS-2B; conditions: Homo sapiens, BEAS-2B, read-out: IC50 (±SD) BEAS-2B
Protocol: as §1, §2, §3

A549 cells [4] = assay: Cell cycle analysis (PI staining, flow cytometry), A549; conditions: A549, 24 h; saponins 1 and 5 at 0.5 μM, other four at 1 μM
Protocol: as §4

SK-HEP-1 = assay: MTS cell viability assay, SK-HEP-1; conditions: Homo sapiens, SK-HEP1, 48 h, read-out: IC50 (±SD) SK-HEP-1
Protocol: as §2, §3

A549 = assay: MTS cell viability assay, A549; conditions: Homo sapiens, A549, 48 h, read-out: IC50 (±SD) A549
Protocol: as §2, §3

SMMC-7721 = assay: MTS cell viability assay, SMMC-7721; conditions: Homo sapiens, SMMC-7721, 48 h, read-out: IC50 (±SD) SMMC-7721
Protocol: as §2, §3

HepG2 cells [5] = assay: Mitochondrial membrane potential (JC-10), HepG2; conditions: HepG2, 2 μM, 24 h
Protocol: (§5) The probe 5,6-dichloro-1,1′,3,3′- tetraethyl-imidacarbocyanine iodide (JC-10) was used as a measure of mitochondrial membrane potential ([Hirose et al., 1974]; [Chaudhari et al., 2008]). The effects of each of the six isolated saponins on mitochondrial membrane potential were determined using a JC-10 assay kit (×200, 10 μL/tube, five tubes), which was purchased from Beijing Solarbio Science & Technology Co., Ltd. (Beijing, China). Cells were cultured in a confocal dish with this method. After 12–24 h of inoculation and culture at 37°C, the purified saponins were added at the indicated concentrations. The cells were incubated at 37°C in a humidified atmosphere with 5% (v/v) CO2 for 24 h. The culture medium was removed, and the confocal dishes were washed twice with 1 mL PBS, followed by 0.5 mL incubation buffer containing 2.5 μL JC-10 (×200) at 37°C for 20 min in the dark. After incubation, the supernatant was removed, and the cells were washed twice with 1 mL JC-10 buffer and PBS. […] The wavelengths for excitation were 490 nm (green fluorescence) and 525 nm (red fluorescence). The wavelengths for emission were in the range of 495–565 nm (monomers for JC-10) and 550–620 nm (polymer for JC-10).

SMMC-7721 cells [6] = assay: Mitochondrial membrane potential (JC-10), SMMC-7721; conditions: SMMC-7721, 2 μM, 24 h
Protocol: as §5

A549 cells [7] = assay: Mitochondrial membrane potential (JC-10), A549; conditions: A549, 2 μM, 24 h
Protocol: as §5

Row | Structure (SMILES) | IC50 (LO2) [µM] | increase of proportion of cells in the G2/M phase compared to DMSO control (HepG2 cells [1]) [%] | apoptosis rate (induction of apoptosis, in words) (SMMC-7721 cells [2]) | cell cycle phase with increased proportion of cells compared to DMSO control (SMMC-7721 cells [3]) | increase of proportion of cells in the G2/M phase compared to DMSO control (SMMC-7721 cells [3]) [%] | IC50 (HepG2) [µM] | IC50 (BEAS-2B) [µM] | cell cycle phase with increased proportion of cells compared to DMSO control (A549 cells [4]) | IC50 (SK-HEP-1) [µM] | IC50 (A549) [µM] | IC50 (SMMC-7721) [µM] | JC-10 green fluorescence (drop in mitochondrial membrane potential) (HepG2 cells [5]) | JC-10 green fluorescence (drop in mitochondrial membrane potential) (SMMC-7721 cells [6]) | JC-10 green fluorescence (drop in mitochondrial membrane potential) (A549 cells [7])
1 | CC1CCC2(OC1)OC1CC3C4CC=C5CC(OC6OC(CO)C(OC7OC(C)C(OC8OC(C)C(O)C(O)C8O)C(O)C7O)C(O)C6OC6OC(C)C(O)C(O)C6O)CCC5(C)C4CCC3(C)C1C2C [saponin 6, diosgenin-3-O-α-L-rhamnopyranosyl-(1→2)-[α-L-rhamnopyranosyl-(1→4)-α-L-rhamnopyranosyl-(1→4)]-β-D-glucopyranoside] | 0.37 ± 0.01 | 25.8 | substantial induction of apoptosis | cell cycle arrest at the G2/M phase | 27.10 | 2.59 ± 0.03 | 0.73 ± 0.03 | G2/M phase | 1.3 ± 0.06 | 0.24 ± 0.01 | 0.45 ± 0.01 | – | – | –
2 | N#CC(C#N)=NNc1cccc(Cl)c1 [CCCP, carbonyl cyanide 3-chlorophenylhydrazone] | – | – | – | – | – | – | – | – | – | – | – | strong green fluorescence | strong green fluorescence | strong green fluorescence
